Laboratory results: patent US20170332627A1, “AGROCHEMICAL RESINATES FOR AGRICULTURAL APPLICATIONS” (priority 2014, published 2017)

Assays:
[1] = Soil test (potting soil/sand, tap water) for release profile; type: physicochemical
Excerpt: To further explore behavior of the IER-AAI complex in conditions found in the soil, a soil test was developed to mimic in-vivo conditions by mixing potting soil with sand, based on the understanding that most soil in the field is not of the same quality as premium potting soil, but instead typically contains more clay or sand. The samples run through the soil test were WG01, WG02, WG05-WG10.
In this experiment, potting soil was mixed with sand in a 19:31 ratio. Then the desired amount of IER-AAI complex (the amount of resin that would allow the total AAI to be 25 mg) was mixed homogenously in with the soil. The Buchner funnel was fitted with filter paper and the filter paper was wet with a little bit of tap water. The Buchner funnel was then placed in an Erlenmeyer flask with a side arm fitted with a rubber adaptor. The side arm was hooked up to a vacuum and the vacuum turned on. Next, the sand/soil/IER-AAI mixture was poured into the Buchner funnel. 10 mL of tap water was poured evenly over the sand/soil/IER-AAI mixture and flooding was observed. Once the water drained into the Erlenmeyer flask, the Buchner funnel was removed and the water transferred into a glass vial. The Buchner funnel was replaced back on the Erlenmeyer flask, the vacuum turned back on, and another 10 mL of tap water was poured evenly over the sand/soil/IER-AAI mixture. This process was repeated until 10×10 mL fractions were collected. Each fraction was then analyzed for UV absorbance at 200-400 nm using a ThermoScientific model Evolution 201, diluting samples when necessary. Comparing the absorbance values against a calibration curve, the amount of AAI in each fraction was calculated.
The percent loading and release profile for each AAI was obtained based on the protocols described in Examples 14 and 15 respectively, except that the AAI content was held constant at 20 mg instead of 25 mg.

[2] = Sand column test, release of chloramben with DI water then 2M NaOH; type: physicochemical; conditions: for release profile in sand column (FIG. 1): result in words
Excerpt: To assess the extended release properties of our WDG and HSC formulations (prepared in accordance with Example 7) we employed a sand column method as described below, where the results of the sand column test can be extrapolated to represent in vivo soil conditions.
Sand column tests were run first with water and then with a 2M NaOH ionic solution. […] The rest of the sand column tests were then run with 2M NaOH; we selected the hydroxyl ion as a representative anion to illustrate the release of the AAI through ion exchange.
First, the sand to be used in the sand column was weighed out into a centrifuge tube. Then the sand was wetted with DI water until flowable and vortexed to mix. Next, the sand was introduced into a Lab-Crest Buret fitted with a Stopcock. DI water was then passed through the sand column to remove any sand that had stuck to the side of the buret. Excess water was drained, until the water level was just at the top of the sand. In a separate small centrifuge tube, the sand was mixed with the experimental sample, and this mixture was added to the top of the sand column. Chloramben control and samples formulated as WG01, WG02, and HSC01 (as described above) were tested.
For each Sample, the experiment was conducted as follows. […] 7×10 mL fractions were collected from the column in appropriately sized culture tubes at 10 mL fractions. The stopcock was closed as the water level reached the top of the sand. […] 7×10 mL fractions were collected in appropriately sized culture tubes. Each fraction was then analyzed for UV absorbance at 200-400 nm using a ThermoScientific model Evolution 201, diluting samples when necessary. Comparing the absorbance values against a calibration curve, the amount of AAI in each fraction was calculated.
The results of these experiments are shown in the graph in FIG. 1.
Fractions 1-7 were run with deionized water flushing through the column, while fractions 8-14 were run with 2 M NaOH flushing through the column. The arrow indicates where the changeover from DI water to NaOH occurred. […] Only when there was a counterion present for exchange (i.e. OH^− in the NaOH), did the chloramben in the test samples start to release more quickly.

[3] = benzoic acid, 25 mg total AAI, 10x10 mL tap water, FIG. 2
[4] = benzoic acid, 25 mg total AAI, 10x10 mL tap water, FIG. 3
[5] = benzoic acid, 25 mg total AAI, HSC comparison, FIG. 5
[6] = chloramben, 25 mg total AAI, 10x10 mL tap water, FIG. 4
[7] = control, no eluent named in head
[8] = whole run, DI water then 2M NaOH, same value under both heads
[9] = dicamba, 20 mg total AAI, FIG. 6
[10] = gibberellic acid, 20 mg total AAI, FIG. 9
[11] = imidacloprid, 20 mg total AAI, FIG. 8
[12] = nicosulfuron, 20 mg total AAI, FIG. 7

SMILES: O=C(O)c1ccccc1 [Benzoic Acid Control, Benzoic acid]
- Percent Released [1, 3]: 97%
- Total AAI Released [1, 3]: 24 mg
- Percent Release [1, 4]: 97%
- Total AAI Released [1, 4]: 24 mg
- Percent Release [1, 5]: 97%
- Total AAI Released [1, 5]: 24 mg

SMILES: Nc1cc(Cl)cc(C(=O)O)c1Cl [Chloramben Control, Chloramben]
- Percent Release [1, 6]: 71%
- Total AAI Released [1, 6]: 18 mg
- % chloramben released in first two fractions [2, 7]: 44%
- Total mg chloramben released [2, 7]: 20.92 mg
- release profile in sand column (FIG. 1) [2]: released more quickly
- release profile in sand column (FIG. 1) ([2]; listed as control chloramben powder): released very quickly
- % chloramben remaining [2, 8]: 30%
- % total chloramben released [2, 8]: 70%

SMILES: COc1c(Cl)ccc(Cl)c1C(=O)O [Dicamba Control, Dicamba]
- Percent Release [1, 9]: 100%
- Total AAI Released [1, 9]: 20 mg

SMILES: C=C1C[C@]23C[C@@]1(O)CC[C@H]2[C@@]12C=C[C@H](O)[C@@](C)(C(=O)O1)[C@H]2[C@@H]3C(=O)O [GA Control, Gibberellic Acid]
- Percent Release [1, 10]: 99%
- Total AAI Released [1, 10]: 20 mg

SMILES: O=[N+]([O-])NC1=NCCN1Cc1ccc(Cl)nc1 [ICD Control, Imidacloprid]
- Percent Release [1, 11]: 98%
- Total AAI Released [1, 11]: 20 mg

SMILES: COc1cc(OC)nc(NC(=O)NS(=O)(=O)c2ncccc2C(=O)N(C)C)n1 [NSN Control, Nicosulfuron]
- Percent Release [1, 12]: 52%
- Total AAI Released [1, 12]: 10 mg
